Assay results taken from ChEMBL document CHEMBL4765295, “Synthesis, pharmacological profile and 2D-QSAR studies of curcumin-amino acid conjugates as potential drug candidates” (Eur J Med Chem, 2020).
pIC50: −log10 of the molar value. “And” between values parts separate entries of the source, which are not always exact repeats. Equal values may be shown once.

Experiments:
Mus musculus [1] = assay: Analgesic activity in albino mouse assessed as forepaw licking/jumping latency time at 10 mg/kg, ip measured after 30 mins by hot plate test (reference value: 5.02 +/- 0.09 sec); format: functional; conditions: 0.5 h
[2] = Ulcerogenic activity in fasted albino mouse assessed as average number of ulcers in gastric mucosa at 10 mg/kg, po for 3 days (reference value: 0); format: toxicity, organism-based; conditions: in vivo, 72 h, time 3 day
Mus musculus [3] = assay: Analgesic activity in albino mouse assessed as protection at 10 mg/kg, ip measured after 30 mins by hot plate test (reference value: 0 %); format: functional; conditions: 0.5 h
Mus musculus [4] = assay: Analgesic activity in albino mouse assessed as forepaw licking/jumping latency time at 10 mg/kg, ip measured after 120 mins by hot plate test (reference value: 2.62 +/- 0.06 sec); format: functional; conditions: 2 h
Splenocyte [5] = assay: Immunomodulatory activity in Swiss albino mouse splenocytes assessed as cell viability at 10 uM by measuring inhibition of stimulation index incubated for 72 hrs in presence of mitogenic stimulus phytohaemagglutinin by MTT assay relative to indomethacin; format: functional; conditions: read-out: Activity
Candida albicans = assay: Antifungal activity against Candida albicans incubated for 18 to 24 hrs by CLSI method; format: functional; conditions: time 18-24 hrs
Mus musculus [6] = assay: Analgesic activity in albino mouse assessed as protection at 10 mg/kg, ip measured after 120 mins by hot plate test relative to indomethacin; format: functional; conditions: 2 h
A549 = assay: Antiproliferative activity against human A549 cells assessed as inhibition of cell growth after 72 hrs by MTT assay; format: functional, cell-based; conditions: A549, 72 h
Rattus norvegicus [7] = assay: Antiinflammatory activity in Wistar rat model of carrageenan-induced paw edema assessed as reduction in thickness of paw edema at 10 mg/kg, ip pretreated for 1 hr followed by carrageenan challenge and measured after 1 hr (reference value: 2.41 +/-0.05 mm); format: functional; conditions: time 1 hr after carrageenan
Peritoneal macrophage [8] = assay: Antiinflammatory activity in […] mouse Peritoneal macrophages assessed as inhibition of LPS-induced NO production at 10 uM preincubated for 1 hr followed by LPS stimulation measured after 24 hrs by Griess method relative to control (reference value: 0.0 %); format: functional; parameters: scale not given: the % may be the effect or the level left; conditions: time 25 hrs
Mus musculus [9] = assay: Analgesic activity in albino mouse assessed as protection at 10 mg/kg, ip measured after 90 mins by hot plate test (reference value: 0 %); format: functional; conditions: 1.5 h
Mus musculus [10] = assay: Analgesic activity in albino mouse assessed protection against acetic acid-induced abdominal writhing at 10 mg/kg, ip pretreated for 1 hr followed by acetic acid challenge and measured starting 5 mins post acetic acid challenge for 10 mins relative to control (reference value: 0 %); format: functional; conditions: time 75 min, 1.25 h
Staphylococcus aureus = assay: Antibacterial activity against Staphylococcus aureus ATCC 25923 incubated for 18 hrs by agar dilution method; format: functional
Mus musculus [11] = assay: Analgesic activity in albino mouse assessed as protection at 10 mg/kg, ip measured after 60 mins by hot plate test (reference value: 0 %); format: functional; conditions: 1 h
[12] = Ulcerogenic activity in fasted albino mouse assessed as ulcer index in gastric mucosa at 10 mg/kg, po for 3 days (reference value: 0); format: toxicity, organism-based; conditions: in vivo, 72 h, time 3 day
Rattus norvegicus [13] = assay: Antiinflammatory activity in Wistar rat model of carrageenan-induced paw edema assessed as reduction in thickness of paw edema at 10 mg/kg, ip pretreated for 1 hr followed by carrageenan challenge and measured after 2 hrs (reference value: 2.06 +/-0.09 mm); format: functional; conditions: time 3 hrs
Mus musculus [14] = assay: Analgesic activity in albino mouse assessed protection against acetic acid-induced abdominal writhing at 10 mg/kg, ip pretreated for 1 hr followed by acetic acid challenge and measured starting 5 mins post acetic acid challenge for 10 mins relative to indomethacin; format: functional; conditions: time 75 min, 1.25 h
[15] = Toxicity in albino mouse assessed as induction of toxic symptoms at 50 to 100 mg/kg, ip measured after 24 hrs; format: organism-based; conditions: in vivo, dose 50-100 mg/kg
Rattus norvegicus [16] = assay: Antiinflammatory activity in Wistar rat model of carrageenan-induced paw edema assessed as reduction in thickness of paw edema at 10 mg/kg, ip pretreated for 1 hr followed by carrageenan challenge and measured after 4 hrs (reference value: 1.40 +/-0.10 mm); format: functional; conditions: time 5 hrs
Rattus norvegicus [17] = assay: Antiinflammatory activity in Wistar rat model of carrageenan-induced paw edema assessed as reduction in thickness of paw edema at 10 mg/kg, ip pretreated for 1 hr followed by carrageenan challenge and measured after 3 hrs (reference value: 1.79 +/-0.07 mm); format: functional; conditions: time 4 hrs
Rattus norvegicus [18] = assay: Anti-inflammatory activity in Wistar rat assessed as inhibition of carrageenan-induced paw edema at 10 mg/kg, ip pretreated for 1 hr followed by carrageenan challenge and measured after 4 hr relative to indomethacin; format: functional; conditions: time 5 hrs
Mus musculus [19] = assay: Analgesic activity in albino mouse assessed as protection at 10 mg/kg, ip measured after 120 mins by hot plate test (reference value: 0 %); format: functional; conditions: 2 h
Mus musculus [20] = assay: Analgesic activity in albino mouse assessed reduction in acetic acid-induced abdominal writhing by measuring writing reflex at 10 mg/kg, ip pretreated for 1 hr followed by acetic acid challenge and measured starting 5 mins post acetic acid challenge for 10 mins (reference value: 42.4 +/- 1.02); format: functional; conditions: time 75 min, 1.25 h
Streptococcus pyogenes = assay: Antibacterial activity against Streptococcus pyogenes ATCC 19615 incubated for 18 hrs by agar dilution method; format: functional
Rattus norvegicus [21] = assay: Anti-inflammatory activity in Wistar rat assessed as inhibition of carrageenan-induced paw edema at 10 mg/kg, ip pretreated for 1 hr followed by carrageenan challenge and measured after 1 hr relative to control (reference value: 0.00 +/-0.02 %); format: functional; conditions: time 2 hrs
Mus musculus [22] = assay: Analgesic activity in albino mouse assessed as forepaw licking/jumping latency time at 10 mg/kg, ip measured after 90 mins by hot plate test (reference value: 2.72 +/- 0.01 sec); format: functional; conditions: 1.5 h
[23] = Ulcerogenic activity in fasted albino mouse assessed as average severity of ulcers in gastric mucosa at 10 mg/kg, po for 3 days (reference value: 0); format: toxicity, organism-based; conditions: in vivo, 72 h, time 3 day
Pseudomonas aeruginosa = assay: Antibacterial activity against Pseudomonas aeruginosa ATCC 27853 incubated for 18 hrs by agar dilution assay; format: functional
Mus musculus [24] = assay: Analgesic activity in albino mouse assessed as forepaw licking/jumping latency time at 10 mg/kg, ip measured after 60 mins by hot plate test (reference value: 3.42 +/- 0.03 sec); format: functional; conditions: 1 h
PC-3 = assay: Antiproliferative activity against human PC3 cells assessed as inhibition of cell growth after 72 hrs by MTT assay; format: functional, cell-based; conditions: PC-3, 72 h
Rattus norvegicus [25] = assay: Anti-inflammatory activity in Wistar rat assessed as inhibition of carrageenan-induced paw edema at 10 mg/kg, ip pretreated for 1 hr followed by carrageenan challenge and measured after 2 hr relative to control (reference value: 0.00 +/-0.03 %); format: functional; conditions: time 3 hrs
Rattus norvegicus [26] = assay: Antiinflammatory activity in Wistar rat model of carrageenan-induced paw edema assessed as reduction in thickness of paw edema at 10 mg/kg, ip pretreated for 1 hr followed by carrageenan challenge and measured after 24 hrs (reference value: 0.83 +/-0.08 mm); format: functional; conditions: time 25 hrs
Rattus norvegicus [27] = assay: Anti-inflammatory activity in Wistar rat assessed as inhibition of carrageenan-induced paw edema at 10 mg/kg, ip pretreated for 1 hr followed by carrageenan challenge and measured after 3 hr relative to control (reference value: 0.00 +/-0.1 %); format: functional; conditions: time 4 hrs
Salmonella typhimurium = assay: Antibacterial activity against Salmonella typhimurium ATCC 19430 incubated for 18 hrs by agar dilution assay; format: functional, Salmonella enterica subsp. enterica serovar Typhimurium; conditions: Salmonella enterica
[28] = Ulcerogenic activity in fasted albino mouse assessed as incidence of gastric ulceration at 10 mg/kg, po for 3 days (reference value: 0 %); format: toxicity, organism-based; conditions: in vivo, 72 h, time 3 day
Peritoneal macrophage [29] = assay: Antiinflammatory activity in […] mouse Peritoneal macrophages assessed as reduction in LPS-induced NO production by measuring reduction in stimulation index at 10 uM preincubated for 1 hr followed by LPS stimulation measured after 24 hrs by Griess method (reference value: 27.31 +/- 2.56 uM); format: functional; conditions: time 25 hrs
Rattus norvegicus [30] = assay: Anti-inflammatory activity in Wistar rat assessed as inhibition of carrageenan-induced paw edema at 10 mg/kg, ip pretreated for 1 hr followed by carrageenan challenge and measured after 4 hr relative to control (reference value: 0.00 +/-0.4 %); format: functional; conditions: time 5 hrs
Rattus norvegicus [31] = assay: Anti-inflammatory activity in Wistar rat assessed as inhibition of carrageenan-induced paw edema at 10 mg/kg, ip pretreated for 1 hr followed by carrageenan challenge and measured after 24 hr relative to control (reference value: 0.00 +/-0.3 %); format: functional; conditions: time 25 hrs
Splenocyte [32] = assay: Immunomodulatory activity in Swiss albino mouse splenocytes assessed as cell viability at 10 uM by measuring stimulation index incubated for 72 hrs in presence of mitogenic stimulus phytohaemagglutinin by MTT assay (reference value: 1.00 +/- 0.24); format: functional
MCF7 = assay: Antiproliferative activity against human MCF7 cells assessed as inhibition of cell growth after 72 hrs by MTT assay; format: functional, cell-based; conditions: MCF7, 72 h

SMILES: COc1cc(/C=C/C(=O)/C=C(O)/C=C/c2ccc(OC(=O)[C@H](N)CCSC)c(OC)c2)ccc1OC(=O)[C@H](N)CCSC.Cl.Cl
- Time (Mus musculus [1]): 5.36 s
- Activity [2]: 0
- Activity (Mus musculus [3]): 6.8%
- Time (Mus musculus [4]): 3.22 s
- viability at 10 µM (Splenocyte [5]): 120%
- MIC (Candida albicans): 1 µg/mL and 1.42 µM
- Activity (Mus musculus [6]): 54.5%
- pIC50 (A549): 4.70
- Activity (Rattus norvegicus [7]): 0.99 mm
- Activity (Peritoneal macrophage [8]): 49.57%
- Activity (Mus musculus [9]): 23.5%
- Activity (Mus musculus [10]): 53.3%
- MIC (Staphylococcus aureus): 0.125 µg/mL and 0.178 µM
- Activity (Mus musculus [11]): 39.8%
- UI [12]: 0
- Activity (Rattus norvegicus [13]): 0.95 mm
- Activity (Mus musculus [14]): 86.5%
- Activity [15]: Non-Toxic
- Activity (Rattus norvegicus [16]): 0.03 mm
- Activity (Rattus norvegicus [17]): 0.62 mm
- inhibition in vivo at 10 mg/kg (Rattus norvegicus [18]): 113%
- Activity (Mus musculus [19]): 22.9%
- Activity (Mus musculus [20]): 19.8
- MIC (Streptococcus pyogenes): 0.25 µg/mL and 0.355 µM
- inhibition in vivo at 10 mg/kg (Rattus norvegicus [21]): 59%
- Time (Mus musculus [22]): 3.36 s
- Activity [23]: 0
- MIC (Pseudomonas aeruginosa): 1 µg/mL and 1.42 µM
- Time (Mus musculus [24]): 4.78 s
- pIC50 (PC-3): 4.38
- inhibition in vivo at 10 mg/kg (Rattus norvegicus [25]): 54%
- Activity (Rattus norvegicus [26]): 0.54 mm
- inhibition in vivo at 10 mg/kg (Rattus norvegicus [27]): 65%
- MIC (Salmonella typhimurium): 0.25 µg/mL and 0.355 µM
- Activity [28]: 0%
- Activity (Peritoneal macrophage [29]): 13.77 µM
- inhibition in vivo at 10 mg/kg (Rattus norvegicus [30]): 98%
- inhibition in vivo at 10 mg/kg (Rattus norvegicus [31]): 35%
- Activity_index (Splenocyte [32]): 1.01
- pIC50 (MCF7): 4.99
